# Tests used:
# [1] = tested on: db/db mice; test: Antidiabetic effects in db/db mice, four weeks of daily oral dosing; type: in vivo; conditions: for Glucose / Glucose (% of Control): 150 mg/kg daily oral, four weeks; for blood glucose: after four weeks of daily oral dosing (Compound AW, BH 150 mg/kg; pioglitazone 100 mg/kg)
# Excerpt: Db/db mice have a defect in leptin signaling, leading to hyperphagia, obesity and diabetes. Moreover, unlike ob/ob mice which have relatively robust islets, their insulin-producing pancreatic islet cells undergo failure during chronic hyperglycemia, so that they transition from hyperinsulinemia (associated with peripheral insulin resistance) to hypoinsulinemic diabetes.
# Male db/db mice were given daily oral treatments with vehicle (0.75% hydroxypropylmethylcellulose) or antidiabetic compounds as indicated below. Blood samples were obtained via the retro-orbital sinus for serum chemistry analysis, or via the tail vein for glucose measurement with a test strip and glucometer.
# The dose of pioglitazone used in this experiment was reported in the literature to be a maximally-effective dose for treatment of db/db mice (Shimaya et al. (2000), Metabolism 49:411-7).
# [2] = tested on: ob/ob obese diabetic mice; test: Acute hypoglycemic effect in ob/ob obese diabetic mice: Expt 2; type: in vivo; conditions: single oral dose 250 mg/kg
# Description: Male ob/ob mice (50-55 grams; blood glucose ˜300 mg/dL) were divided into groups of five animals each, and given a single oral dose of test drug (250 mg/kg) suspended in 0.5% carboxymethylcellulose vehicle; a control group received oral vehicle alone.
# Six hours after oral administration of test drugs or vehicle (control), blood samples were obtained from a tail vein and glucose content was determined with a glucometer.
# [3] = tested on: ob/ob mice; test: Hyperglycemia, hyperlipidemia, fatty liver disease and weight gain in ob/ob obese diabetic mice, daily oral dosing; type: in vivo, C57BL/6 mice; conditions: for Free Fatty Acids ± SEM / Glucose ± SEM / Triglycerides ± SEM / ALT (U/L) ± SEM / AST (U/L) ± SEM / SDH (U/L) ± SEM: 4 weeks; for ALT (U/L) ± SEM / AST (U/L) ± SEM / SDH (U/L) ± SEM: serum
# Excerpt: Ob/ob mice have a defect in the gene for leptin, a protein involved in appetite regulation and energy metabolism, and are hyperphagic, obese, and insulin resistant. They develop hyperglycemia and fatty liver.
# [4] = tested on: Zucker Diabetic Fatty (ZDF) rats; test: Attenuation of cataractogenesis in Zucker Diabetic Fatty (ZDF) rats; type: in vivo; conditions: 100 mg/kg daily oral, 10 weeks
# Excerpt: Cataracts are one of the leading causes of progressive vision decline and blindness associated with ageing and diabetes, and the Zucker diabetic fatty (ZDF) model has many similarities with human cataractogenesis, including biochemical changes and oxidative stress in the lens. These rats, however, undergo cataractogenesis typically between 14-16 weeks of age.
# Male ZDF rats and their aged-match Zucker lean (ZL) counterparts (fa/+ or +/+) were obtained from Genetic Models, Inc. (Indianapolis, Ind.) aged 12 weeks and acclimatized for 1 week prior to study. […] Treatment cohorts were given a daily oral dose of vehicle and 100 mg/kg of BI or BH for 10 weeks. […] At the end of the treatment period 100 μl of venous blood was collected (usually 10:00 A.M.) in a heparinized tube from the tail vein for serum chemistry analysis (Anilytics, Inc., Gaithersburg, Md.). […] Plasma insulin was measured by an electrochemiluminescent immunoassay, ECL (Origen Analyzer, Igen, Inc., Gaithersburg, Md.). The animals were sacrificed and tissues and/or organs (lens and liver) were extirpated, weighed (wet weight) and processed for biochemical analyses. Malondialdehyde (MDA), a major product of lipid peroxidation was assayed in lenses according to Ohkawa et al (1979), Analytical Biochem 95, 351-358).
# [5] = tested on: high fat-fed C57Bl/6J mice; test: Circulating triglycerides, free fatty acids, insulin and leptin in high fat-fed C57Bl/6J mice; type: in vivo; conditions: after 2 weeks of drug treatments
# Excerpt: The high fat-fed mouse is a model for the hypertriglyceridemia and high circulating fatty acid levels, and the insulin and leptin resistance that are found in people at risk for and with obesity, diabetes, cardiovascular disease and other disorders. Male C57Bl/6J mice, approximately 8 weeks of age, were randomly assigned into groups of 6 animals. […] Mice were fed a high-fat diet (diet number D12451, containing 45% of calories as fat (Research Diets, New Brunswick, N.J.)) for 6 weeks. […]
# [6] = tested on: db/db mice; test: Antidiabetic effects in db/db mice, second experiment, 8 weeks of treatment; type: in vivo; conditions: 20 mg/kg, 8 weeks of treatment
# Excerpt: Blood samples were obtained via the retro-orbital sinus for serum chemistry analysis, or via the tail vein for glucose measurement with a test strip and glucometer.
# Groups consisted of 6-8 mice each.
# [7] = 3 mg/kg/day, four week treatment period
# [8] = 10 mg/kg/day, four week treatment period
# [9] = 30 mg/kg/day, four week treatment period
smiles,measurement,setting,value
"O=C(O)CCC(=O)c1cccc(OCc2c(F)cccc2F)c1 [Compound AW, 4-(3-(2,6-Difluorobenzyloxy)phenyl)-4-oxobutyric acid]",Glucose,[1],313 ± 34 mg/dL
same,Glucose (% of Control),[1],56 ± 6 % of Control
same,blood glucose,[1],significant reduction in blood glucose
same,Blood Glucose after 6 hours,[2],143 ± 15 mg/dL
same,Mean body weight gain (grams),[3]; [7],+7.3 grams
same,Free Fatty Acids ± SEM,[3]; 10 mg/kg/day oral,3697.4 ± 357.8 µmol/L
same,Glucose ± SEM,[3]; 10 mg/kg/day oral,369.6 ± 62.5 mg/dL
same,Triglycerides ± SEM,[3]; 10 mg/kg/day oral,115.6 ± 7.8 mg/dL
same,Mean body weight gain (grams),[3]; [8],+6.7 grams
same,Free Fatty Acids ± SEM,[3]; 30 mg/kg/day oral,2552.2 ± 334.7 µmol/L
same,Glucose ± SEM,[3]; 30 mg/kg/day oral,280.2 ± 46.7 mg/dL
same,Triglycerides ± SEM,[3]; 30 mg/kg/day oral,96.4 ± 7.3 mg/dL
same,Mean body weight gain (grams),[3]; [9],+6.4 grams
same,Free Fatty Acids ± SEM,[3]; 100 mg/kg/day oral,1476 ± 82.1 µmol/L
same,Glucose ± SEM,[3]; 100 mg/kg/day oral,286 ± 47.1 mg/dL
same,Triglycerides ± SEM,[3]; 100 mg/kg/day oral,66.2 ± 5.9 mg/dL
same,Mean body weight gain (grams),"[3]; 100 mg/kg/day, four week treatment period",+3.4 grams
same,Free Fatty Acids ± SEM,[3]; 150 mg/kg/day oral,1481 ± 158.8 µmol/L
same,Glucose ± SEM,[3]; 150 mg/kg/day oral,188.6 ± 28.8 mg/dL
same,Triglycerides ± SEM,[3]; 150 mg/kg/day oral,72.6 ± 5.6 mg/dL
same,Mean body weight gain (grams),"[3]; 150 mg/kg/day, four week treatment period",+4.6 grams
same,Free Fatty Acids ± SEM,[3]; 300 mg/kg/day oral,1452.6 ± 111.1 µmol/L
same,Glucose ± SEM,[3]; 300 mg/kg/day oral,128.4 ± 8.8 mg/dL
same,Triglycerides ± SEM,[3]; 300 mg/kg/day oral,63.6 ± 3.4 mg/dL
same,Mean body weight gain (grams),"[3]; 300 mg/kg/day, four week treatment period",−0.7 grams
same,blood glucose,"[3]; daily oral doses, compared with pioglitazone and rosiglitazone",reduction in blood glucose comparable to that achieved with pioglitazone and rosiglitazone
same,liver fat droplets (liver histology),[3]; daily treatment for 4 weeks,marked reduction in liver fat droplets
same,serum triglycerides and fatty acids,"[3]; doses of 100 to 300 mg/kg/day, versus comparators at their optimum antihyperglycemic doses",reduced serum triglycerides and fatty acids better than did either rosiglitazone or pioglitazone
same,"serum liver enzymes (ALT, AST, SDH)",[3]; doses ranging from 30 mg/kg/day to 300 mg/kg/day,dose-dependent decrease in serum liver enzymes
same,weight gain relative to vehicle-treated mice,[3]; four week treatment period,dose-dependent attenuation of weight gain
same,ALT (U/L) ± SEM,[3]; 10 mg/kg/day oral,483.8 ± 81.9 U/L
same,AST (U/L) ± SEM,[3]; 10 mg/kg/day oral,653.4 ± 104.8 U/L
same,SDH (U/L) ± SEM,[3]; 10 mg/kg/day oral,626.8 ± 93.8 U/L
same,ALT (U/L) ± SEM,[3]; 30 mg/kg/day oral,320.2 ± 46.2 U/L
same,AST (U/L) ± SEM,[3]; 30 mg/kg/day oral,399.6 ± 74.4 U/L
same,SDH (U/L) ± SEM,[3]; 30 mg/kg/day oral,333.0 ± 66.9 U/L
same,ALT (U/L) ± SEM,[3]; 100 mg/kg/day oral,202.8 ± 38.0 U/L
same,AST (U/L) ± SEM,[3]; 100 mg/kg/day oral,143.8 ± 30.4 U/L
same,SDH (U/L) ± SEM,[3]; 100 mg/kg/day oral,121.2 ± 14.1 U/L
same,ALT (U/L) ± SEM,[3]; 150 mg/kg/day oral,149.2 ± 15.6 U/L
same,AST (U/L) ± SEM,[3]; 150 mg/kg/day oral,185.8 ± 26.0 U/L
same,SDH (U/L) ± SEM,[3]; 150 mg/kg/day oral,166.2 ± 20.0 U/L
same,ALT (U/L) ± SEM,[3]; 300 mg/kg/day oral,188.2 ± 10.3 U/L
same,AST (U/L) ± SEM,[3]; 300 mg/kg/day oral,335.4 ± 44.8 U/L
same,SDH (U/L) ± SEM,[3]; 300 mg/kg/day oral,207.0 ± 29.3 U/L
"O=C(O)CCC(=O)c1cccc(OCC2CC2)c1 [Compound BH, 4-(3-((Cyclopropyl)-methoxy)phenyl)-4-oxobutyric acid]",% Protection Left Eye,[4],33%
same,% Protection Right Eye,[4],17%
same,Cataract Formation Left Eye,[4],4/6
same,Cataract Formation Right Eye,[4],5/6
same,Lenticular MDA,[4]; means ± SEM,1.9 ± 0.2 nmol/g lens
same,Size (mm) Left Lens,[4]; means ± SEM,2.5 ± 0.3 mm
same,Size (mm) Right Lens,[4]; means ± SEM,2.1 ± 0.4 mm
same,Weight (mg) Left Lens,[4]; means ± SEM,27.0 ± 7.2 mg
same,Weight (mg) Right Lens,[4]; means ± SEM,20.0 ± 6.6 mg
same,Glucose,[1],229 ± 49 mg/dL
same,Glucose (% of Control),[1],41 ± 9 % of Control
same,blood glucose,[1],significant reduction in blood glucose
"CN(CCOc1ccc(CC2SC(=O)NC2=O)cc1)c1ccccn1 (centres unmarked) [Rosiglitazone, rosiglitazone, reference compound]",Free Fatty Acids,[5]; 1 mg/kg oral gavage,1537 ± 256.3 µmol/L
same,Triglycerides,[5]; 1 mg/kg oral gavage,76.6 ± 16.5 mg/dL
same,Free Fatty Acids,[5]; 3 mg/kg oral gavage,1833.2 ± 169.8 µmol/L
same,Triglycerides,[5]; 3 mg/kg oral gavage,103.2 ± 10.8 mg/dL
same,Free Fatty Acids,[5]; 10 mg/kg oral gavage,1810.3 ± 595 µmol/L
same,Triglycerides,[5]; 10 mg/kg oral gavage,129.5 ± 48.7 mg/dL
same,Free Fatty Acids,[5]; 100 mg/kg oral gavage,1568.5 ± 197 µmol/L
same,Triglycerides,[5]; 100 mg/kg oral gavage,88 ± 7.2 mg/dL
same,Glucose,[6],343 ± 38 mg/dL
same,Triglycerides,[6],89 ± 16 mg/dL
same,Free Fatty Acids ± SEM,[3]; 1 mg/kg/day oral,2090.75 ± 67.7 µmol/L
same,Glucose ± SEM,[3]; 1 mg/kg/day oral,142.75 ± 8.8 mg/dL
same,Triglycerides ± SEM,[3]; 1 mg/kg/day oral,109.75 ± 4.4 mg/dL
same,Mean body weight gain (grams),"[3]; 1 mg/kg/day, four week treatment period",+8.2 grams
same,Free Fatty Acids ± SEM,[3]; 3 mg/kg/day oral,2317.6 ± 85.3 µmol/L
same,Glucose ± SEM,[3]; 3 mg/kg/day oral,190.2 ± 12.7 mg/dL
same,Triglycerides ± SEM,[3]; 3 mg/kg/day oral,107.8 ± 3.8 mg/dL
same,Mean body weight gain (grams),[3]; [7],+8.5 grams
same,Free Fatty Acids ± SEM,[3]; 10 mg/kg/day oral,2606.4 ± 139.2 µmol/L
same,Glucose ± SEM,[3]; 10 mg/kg/day oral,188.2 ± 21.4 mg/dL
same,Triglycerides ± SEM,[3]; 10 mg/kg/day oral,111.2 ± 7.5 mg/dL
same,Mean body weight gain (grams),[3]; [8],+11.0 grams
same,Free Fatty Acids ± SEM,[3]; 30 mg/kg/day oral,1983.4 ± 66.1 µmol/L
same,Glucose ± SEM,[3]; 30 mg/kg/day oral,174.6 ± 11.5 mg/dL
same,Triglycerides ± SEM,[3]; 30 mg/kg/day oral,95.2 ± 4.8 mg/dL
same,Mean body weight gain (grams),[3]; [9],+12.0 grams

# Reference: patent publication US6924314B2, “Compounds for the treatment of metabolic disorders” (Wellstat Therapeutics Corporation, priority 2001, dated 2005)
